Test results taken from article PMC10825183 (Nature Communications, 2024).
Values joined by “and” are separate entries in the source; they are usually repeats but may differ in a detail not shown here. Equal values may be shown once. Read-outs that look alike come from different tables or passages of the source.

Legend:
full length mHCN2 [1] = target: T1, full length mHCN2 (Mus musculus, UniProt O88703); settings: read-out: binding affinity BC50, cited from earlier work
T1 construct: to full length mHCN2 and ΔDE (mHCN2 1-640) mutant channels, both expressed in Xenopus oocytes; expressed in transfected cells; host or cells: Xenopus laevis oocytes (cRNA injected; pGEMHE vector); excised macropatches
T1 sequence (O88703 1-863): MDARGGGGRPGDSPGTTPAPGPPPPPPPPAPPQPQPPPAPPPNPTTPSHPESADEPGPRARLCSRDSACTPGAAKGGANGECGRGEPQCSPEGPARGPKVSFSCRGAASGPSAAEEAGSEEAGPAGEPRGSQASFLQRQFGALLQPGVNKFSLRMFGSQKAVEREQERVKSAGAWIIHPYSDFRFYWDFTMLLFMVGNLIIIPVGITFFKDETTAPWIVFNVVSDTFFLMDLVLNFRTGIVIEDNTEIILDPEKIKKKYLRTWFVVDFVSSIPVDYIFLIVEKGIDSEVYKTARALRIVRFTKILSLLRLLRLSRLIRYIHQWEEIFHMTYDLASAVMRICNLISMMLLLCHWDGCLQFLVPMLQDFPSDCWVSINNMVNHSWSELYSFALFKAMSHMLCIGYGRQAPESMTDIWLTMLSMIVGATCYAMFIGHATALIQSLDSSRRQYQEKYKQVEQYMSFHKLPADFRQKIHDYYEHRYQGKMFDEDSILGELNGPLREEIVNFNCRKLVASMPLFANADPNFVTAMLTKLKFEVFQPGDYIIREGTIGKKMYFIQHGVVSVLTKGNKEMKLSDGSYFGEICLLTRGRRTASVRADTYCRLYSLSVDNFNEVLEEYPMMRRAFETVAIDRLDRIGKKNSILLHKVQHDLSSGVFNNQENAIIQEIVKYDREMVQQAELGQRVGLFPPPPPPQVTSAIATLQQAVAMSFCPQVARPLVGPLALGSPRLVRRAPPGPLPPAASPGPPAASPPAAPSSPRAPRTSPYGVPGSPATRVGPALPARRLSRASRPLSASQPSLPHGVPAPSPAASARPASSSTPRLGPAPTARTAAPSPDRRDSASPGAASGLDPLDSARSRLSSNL

full length mHCN2 [2] = target: T1, full length mHCN2; assay: Confocal patch-clamp fluorometry (cPCF), oocyte macropatches; format: binding; settings: for factor of relative fluorescence increase: individual patches
Method: (§1) We tested this hypothesis using confocal patch-clamp fluorometry (cPCF)[8], measuring current activation and ligand binding in parallel.
(§2) Oocytes were surgically removed from adult females of the South African clawed frog Xenopus laevis under anesthesia (0.3% MS-222 (tricaine methanesulfonate) (Pharmaq, Fordingbridge, UK)). The surgery procedures were carried out in accordance with the German Animal Welfare Act with the approval of the Thuringian State Office for Consumer Protection on 30.08.2013 and 09.05.2018. The oocytes were treated with collagenase A (3 mg/mL; Roche Diagnostics (Grenzach-Wyhlen, Germany)) for 105 min in Ca^2+-free Barth solution containing 82.5 mM NaCl, 2 mM KCl, 1 mM MgCl2, and 5 mM HEPES (pH 7.5). Oocytes of stages IV and V were manually dissected and injected with cRNA-encoding mHCN2 channels of Mus musculus or constructs carrying a point mutation. After injection with cRNA, the oocytes were cultured at 18 °C for 2–10 days in Barth solution containing 84 mM NaCl, 1 mM KCl, 2.4 mM NaHCO3, 0.82 mM MgSO4, 0.41 mM CaCl2, 0.33 mM Ca(NO3)2, 7.5 mM Tris, cefuroxime, and penicillin/streptomycin (pH 7.4). The procedures had approval from the authorized animal ethics committee of the Friedrich Schiller University Jena. The methods were performed according to approved guidelines. Oocytes harvested in our laboratory were complemented with ready-to-use oocytes purchased from EcoCyte Bioscience (Dortmund, Germany).
(§3) The recordings were performed with an LSM 710 confocal microscope (Carl Zeiss, Jena, Germany) and were triggered by the ISO3 software (MFK, Niedernhausen, Germany). To distinguish the fluorescence of the nonbound f1cAMP from that of the bound f1cAMP, a second, chemically related dye, DY647 (Dyomics, Jena, Germany), was also added to the bath solution. The 543- and 633-nm lines of an He-Ne laser were used to excite f1cAMP and DY647, respectively. For quantifying the bound f1cAMP, the fluorescence intensities of the red and the green channels were corrected for small offsets, and the fluorescence in the red channel was scaled to the fluorescence in the green channel in the bath. The difference between the measured green and the scaled red profile for each pixel of the confocal image represents the fraction of the fluorescence signal originating from the bound f1cAMP. The free patch membrane (patch dome) only was used to quantify binding by setting a mask at a region of interest. The fluorescence, F, was averaged over all pixels inside this mask and normalized in each patch concerning the fluorescence at saturating (f1cAMP) and full channel activation (−130 mV), Fmax. The recording rate of the confocal images was 10 Hz.

ΔDE (mHCN2 1-640) = target: T2, ΔDE (mHCN2 1-640) (Mus musculus, UniProt O88703); assay: as above; format: binding; settings: for factor of relative fluorescence increase: individual patches
T2 construct: full length mHCN2 and ΔDE (mHCN2 1-640) mutant channels, both expressed in Xenopus oocytes; expressed in transfected cells; host or cells: Xenopus laevis oocytes (cRNA injection, pGEMHE)
T2 sequence (O88703 1-640): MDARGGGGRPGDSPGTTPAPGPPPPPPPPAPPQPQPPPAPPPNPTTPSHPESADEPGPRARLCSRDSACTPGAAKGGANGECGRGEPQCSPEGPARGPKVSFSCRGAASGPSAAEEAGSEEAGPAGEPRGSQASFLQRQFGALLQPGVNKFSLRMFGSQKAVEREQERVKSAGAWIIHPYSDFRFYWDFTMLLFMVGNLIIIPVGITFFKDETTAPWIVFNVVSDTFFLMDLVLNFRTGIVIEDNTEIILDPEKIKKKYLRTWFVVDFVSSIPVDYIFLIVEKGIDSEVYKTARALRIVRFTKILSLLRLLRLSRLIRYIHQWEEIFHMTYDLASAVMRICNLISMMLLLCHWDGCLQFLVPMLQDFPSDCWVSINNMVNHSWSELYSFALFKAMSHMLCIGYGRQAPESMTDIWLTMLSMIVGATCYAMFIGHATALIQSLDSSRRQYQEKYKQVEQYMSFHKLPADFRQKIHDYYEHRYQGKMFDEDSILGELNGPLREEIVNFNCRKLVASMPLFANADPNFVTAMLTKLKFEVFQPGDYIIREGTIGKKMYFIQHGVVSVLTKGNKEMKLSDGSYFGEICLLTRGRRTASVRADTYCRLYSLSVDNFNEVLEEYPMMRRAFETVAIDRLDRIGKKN
Method: as §1, §2, §3

Substance: 8-Cy3B-AHT-cAMP [f1cAMP]
- Kd (full length mHCN2 [1]; activated mHCN2 channels): 250 nM
- Kd (full length mHCN2 [1]; non-activated mHCN2 channels): 980 nM
- mean increase of fluorescence intensity upon activation, F–130 mV/F−30mV (full length mHCN2 [2]; 0.25 µM f1cAMP, n = 9): 1.6 ± 0.1
- F-130 mV/F−30mV (full length mHCN2 [2]; 2.5 µM f1cAMP, n = 7): 1.1 ± 0.04
- factor of relative fluorescence increase (full length mHCN2 [2]; fcAMP 0.25 µM): 1.7 and 1.6 and 1.9 and 2.2 and 1.3 and 1.2
- factor of relative fluorescence increase (full length mHCN2 [2]; fcAMP 2.5 µM): 0.9 and 1.1 and 1.3 and 1.0 and 1.2
- mean increase of fluorescence intensity upon activation, F–130 mV/F−30mV (ΔDE (mHCN2 1-640); 0.25 µM f1cAMP, n = 4): 2.1 ± 0.3
- factor of relative fluorescence increase (ΔDE (mHCN2 1-640); fcAMP 0.25 µM): 1.6 and 2.4 and 1.7 and 2.6
- factor of relative fluorescence increase (ΔDE (mHCN2 1-640); fcAMP 2.5 µM): 1.1 and 1.3 and 1.2
